From PubChem BioAssay (NCI)
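Each compound was tested at five concentrations against cells in 96-well plates for 48 hours. Here, GI50 denotes the concentration required for 50% inhibition of growth. TGI is the concentration that stops growth completely.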

Key:
Test in all cases: inhibition of tumour cell growth, NCI panel, 48 h
CCRF-CEM leukemia = tested on: CCRF-CEM leukemia
786-0 renal = tested on: 786-0 renal
SK-OV-3 ovarian = tested on: SK-OV-3 ovarian
SF-539 CNS = tested on: SF-539 CNS
BT-549 breast = tested on: BT-549 breast
OVCAR-3 ovarian = tested on: OVCAR-3 ovarian
MDA-MB-435 = tested on: MDA-MB-435
SNB-19 CNS = tested on: SNB-19 CNS
SR leukemia = tested on: SR leukemia
LOX IMVI melanoma = tested on: LOX IMVI melanoma

Row | Structure (SMILES) | TGI (CCRF-CEM leukemia) [µM] | TGI (786-0 renal) [µM] | TGI (SK-OV-3 ovarian) [µM] | TGI (SF-539 CNS) [µM] | TGI (BT-549 breast) [µM] | TGI (OVCAR-3 ovarian) [µM] | TGI (MDA-MB-435) [µM] | TGI (SNB-19 CNS) [µM] | TGI (SR leukemia) [µM] | TGI (LOX IMVI melanoma) [µM] | GI50 (CCRF-CEM leukemia) [µM] | GI50 (SK-OV-3 ovarian) [µM] | GI50 (OVCAR-3 ovarian) [µM] | GI50 (SR leukemia) [µM] | GI50 (SF-539 CNS) [µM] | GI50 (BT-549 breast) [µM] | GI50 (MDA-MB-435) [µM] | GI50 (SNB-19 CNS) [µM] | GI50 (LOX IMVI melanoma) [µM]
1 | O=C(N/N=C/c1ccc(O)cc1)NNCCO | > 100 | > 100 | > 100 | > 100 | > 100 | > 100 | > 100 | > 100 | > 100 | – | – | – | – | – | – | – | – | – | –
2 | Cc1ccnc2[nH]c(-c3ccc(Cl)cc3)cc(=O)c12 | > 100 | > 100 | > 62.1 | > 100 | > 100 | 99.1 | – | > 100 | 5.97 | > 100 | – | – | – | – | – | – | – | – | –
3 | CCCN1CCN(c2ccc3nc(-c4ccc5nc(-c6ccc(OCC)cc6)[nH]c5c4)[nH]c3c2)CC1 | 3.58 | – | 3.37 | – | – | 3.59 | – | – | 2.58 | – | 0.629 | 1.33 | 1.99 | 0.404 | – | – | – | – | –
4 | Cc1nc2cc3[nH]c4ccccc4c(=O)c3cc2s1 | > 100 | > 100 | > 100 | > 100 | – | > 100 | – | > 100 | > 100 | – | – | – | – | – | – | – | – | – | –
5 | C#CCN1C(=O)CN2C(Cl)(Cl)C2(c2ccccc2)c2cc(Cl)ccc21 (stereo unspecified) | > 100 | – | – | – | – | > 100 | – | – | > 100 | > 100 | – | – | – | – | – | – | – | – | –
6 | CCN(CC)CCNC(=O)C1COc2ccc(-c3cc(=O)c4ccccc4o3)cc2O1 (stereo unspecified) | 68.6 | – | 47 | 30 | – | 41.4 | – | 59.9 | – | 31.7 | – | – | – | – | – | – | – | – | –
7 | O=C(/C=C/c1cc2ccccc2[nH]c1=O)c1ccc(O)cc1 | > 100 | – | – | 8.64 | 5.35 | 11.8 | 16.8 | 18 | – | 12.7 | 2.38 | – | 3.22 | – | 2.55 | 1.95 | 2.94 | 4.59 | 2.47
8 | O=C1C2Cc3ccccc3CN2C(=O)N1CN1CCCCC1 (stereo unspecified) | > 100 | > 100 | – | > 100 | – | > 100 | – | > 100 | > 100 | > 100 | – | – | – | – | – | – | – | – | –
9 | c1ccc(C2SCc3nc4ccccc4n32)cc1 (stereo unspecified) | > 100 | > 100 | > 100 | > 100 | – | 54.5 | – | > 100 | > 100 | > 100 | – | – | – | – | – | – | – | – | –
10 | CC(=O)[C@H]1CC[C@@H]2[C@]1(C)CC=C1[C@]23C=C[C@]2(C[C@@H](O)CC[C@]12C)C(C(=O)O)C3C(=O)O (stereo partly specified) | > 100 | > 100 | > 100 | > 100 | > 100 | > 100 | > 100 | > 100 | – | > 100 | – | – | – | – | – | – | – | – | –
11 | COC(=O)C12CCC(CC1=O)C2(C)C (stereo unspecified) | – | > 100 | > 100 | > 100 | – | > 100 | – | > 100 | > 100 | > 100 | – | – | – | – | – | – | – | – | –
12 | N#Cc1ccccc1C#C/C=C\C#Cc1ccccn1 | > 100 | 41.9 | 76.7 | 45.1 | – | 19.2 | 20.4 | 69.3 | 36.2 | – | – | – | – | – | – | – | – | – | –
